The results in this text go back to ChEMBL document CHEMBL1124557, “Pentadienyl carboxamide derivatives as antagonists of platelet-activating factor” (J Med Chem, 1989).

The test system of assay [1] is Cavia porcellus. The assay is described as follows: Ability to prevent PAF-induced bronchoconstriction in guinea pig when administered at a dose of 1 mg/kg intravenously. Format: functional. Conditions: route intravenous; call rule not given here.
The subject of assay [2] is Rattus norvegicus. The assay is described as follows: PAF-induced capillary permeability changes are studied in rat skin test, after peroral administration of the compound. It counts as functional. Conditions: po, read-out: ID50 (the source's name).
Assay [3] deals with Cavia porcellus. In words: Inhibition of PAF-induced bronchoconstriction in guinea pig 2 hr after p.o. administration. Conditions: po, read-out: ID50 (the source's name). Format: functional.
Assay [4] deals with Platelet-activating factor receptor (Cavia porcellus) (UniProt P21556). The assay is described as follows: Ability to prevent PAF-induced bronchoconstriction in guinea pig 2 hr after administration (50 mg/kg perorally). It counts as functional, organism-based.
Platelet-activating factor receptor (Cavia porcellus), sequence (P21556 whole entry): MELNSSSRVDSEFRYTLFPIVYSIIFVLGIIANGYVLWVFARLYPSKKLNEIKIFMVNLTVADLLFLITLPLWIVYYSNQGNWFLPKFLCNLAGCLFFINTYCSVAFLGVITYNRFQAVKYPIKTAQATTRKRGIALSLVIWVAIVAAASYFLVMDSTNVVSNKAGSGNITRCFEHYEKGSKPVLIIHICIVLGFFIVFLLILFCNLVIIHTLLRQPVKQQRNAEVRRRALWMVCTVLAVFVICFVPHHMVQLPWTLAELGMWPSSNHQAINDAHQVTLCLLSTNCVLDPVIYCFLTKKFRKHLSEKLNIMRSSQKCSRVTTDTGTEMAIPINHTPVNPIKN
Assay [5] relates to Cavia porcellus. In words: Ability to prevent PAF-induced bronchoconstriction in guinea pig 6 hr following 50 mg/kg p.o. administration. It counts as functional. Conditions: route oral.
Assay [6] concerns the target Platelet-activating factor receptor (Cavia porcellus) (UniProt P21556). In words: Ability to prevent PAF-induced bronchoconstriction in guinea pig when administered intravenously. It counts as functional.
For assay [7], the system named is Cavia porcellus. The assay is described as follows: PAF-induced capillary permeability changes are studied in guinea pig skin test, after peroral administration of the compound. Format: functional. Conditions: po, read-out: ID50 (the source's name).
Assay [8] deals with Cavia porcellus. In words: PAF-induced capillary permeability changes are studied in guinea pig test, after intravenous administration of the compound. Conditions: read-out: ID50 (the source's name). Format: functional.
Assay [9] concerns Rattus norvegicus. The assay is described as follows: PAF-induced capillary permeability changes are studied in rat skin test, after intravenous administration of the compound. Conditions: read-out: ID50 (the source's name). Format: functional.
The test system of assay [10] is Cavia porcellus. In words: Ability to prevent PAF-induced bronchoconstriction in guinea pig when administered dose 0.5 mg/kg intravenously. It counts as functional. Conditions: route intravenous.
Assay [11] deals with Platelet-activating factor receptor (Canis familiaris). The assay is described as follows: Compound was evaluated for inhibition of platelet activating factor binding activity in dog platelets using [3H]PAF as radioligand; NA means inactive.
Assay [12] deals with Cavia porcellus. In words: Ability to prevent PAF-induced bronchoconstriction in guinea pig 2 hr after administration of compound (50 mg/kg perorally). Format: functional. Conditions: po, read-out: ID50 (the source's name).
For assay [13], the system named is Cavia porcellus. The assay is described as follows: Inhibitory activity against bronchoconstriction in guinea pig 2 hr after peroral administration of compound. Format: functional. Conditions: Lung, po, read-out: ID50 (the source's name).
The test system of assay [14] is Cavia porcellus. The assay is described as follows: Ability to prevent PAF-induced bronchoconstriction in guinea pig when administered dose 1 mg/kg intravenously. It counts as functional. Conditions: route intravenous.

Molecules are shown by their SMILES.

Regarding `Cc1nnc2n1-c1sc(CCC(=O)N3CCOCC3)cc1C(c1ccccc1Cl)=NC2` [APAFANT], the inhibition in vivo (as a rule, the change of the read-out against control, counted positive when it falls) at 1 mg/kg in [1] came out at 99%. The ED50 in assay [2] was found to be 45 mg/kg; in [3], 1 mg/kg; in assay [7], 35 mg/kg; in assay [8] it was 2.5 mg/kg; in [9], 0.64 mg/kg. Further, the inhibition (usually the change of the read-out against control, counted positive when it falls) in assay [4] worked out at 100%. Besides, the inhibition in vivo at 50 mg/kg in assay [5] turned out to be 100%. The ID50 in assay [6] was 0.03 mg/kg.
In the case of `O=C(CCCCC=C(c1ccccc1)c1ccccc1)NCCCCc1cccnc1`, the inhibition in vivo at 0.5 mg/kg in assay [10] is 15%.
In the case of `O=C(CCCCCC=C(c1ccccc1)c1ccccc1)NCCCCc1cccnc1`, the IC50 entry in assay [11] is “Not Active”.
In the case of `O=C(C=C(c1ccccc1)c1ccccc1)NCCCCc1cccnc1`, in assay [4], the inhibition stood at 28%. In addition, the inhibition in vivo at 0.5 mg/kg in assay [10] is 66%. The same compound came in with an ID50 in assay [6] of 0.58 mg/kg.
Consider `O=C(C/C=C/C=C(c1ccccc1)c1ccccc1)NCCCCc1cccnc1`, for which the ED50 in [12] came out at 0.62 mg/kg. In assay [4], this compound returned an inhibition of 35%. Moreover, the inhibition in vivo at 0.5 mg/kg in assay [10] was found to be 60%.
With `O=C(CC=C(c1ccccc1)c1ccccc1)NCCCCc1cccnc1`, the IC50 result in [11] is recorded as “Not Active”.
Turning to `COc1ccc(C(=C/C=C/C(=O)N[C@H](C)CCCc2cccnc2)c2ccc(OC)cc2)cc1`, the inhibition in vivo at 1 mg/kg in assay [1] turned out to be 98%. The ED50 in assay [2] is 25 mg/kg; in assay [13], 4 mg/kg; in [7] it was 75 mg/kg; in assay [8] it was 15 mg/kg; in [9], 2 mg/kg. In [4], this compound gave an inhibition of 98%. For the same compound, the inhibition in vivo at 50 mg/kg in assay [5] was 93%. In addition, the ID50 in [6] worked out at 0.25 mg/kg.
On to `O=C(CCCC=C(c1ccccc1)c1ccccc1)NCCCCc1cccnc1`, for which the IC50 entry in [11] is on record as “Not Active”.
Take `O=C(CCC=C(c1ccccc1)c1ccccc1)NCCCCc1cccnc1`: the inhibition in vivo at 0.5 mg/kg in [10] came out at 21%.
On to `O=C(/C=C/C=C(c1ccc(F)cc1)c1ccc(F)cc1)NCCCCc1cccnc1`, for which, in assay [1], the inhibition in vivo at 1 mg/kg turned out to be 91%. In addition, the inhibition in assay [4] is 89%. Besides, the ED50 in assay [13] is 28 mg/kg. Moreover, the ID50 in [6] was determined as 0.38 mg/kg.
As for `O=C(/C=C/C=C(c1cccc(F)c1)c1cccc(F)c1)NCCCCc1cccnc1`, in [1], the inhibition in vivo at 1 mg/kg turned out to be 71%. This compound registered an inhibition in [4] of 37%. Moreover, the ED50 in assay [13] was 50 mg/kg. In addition, the ID50 in [6] stood at 0.34 mg/kg.
In the case of `O=C(/C=C\C=C(c1ccccc1)c1ccccc1)NCCCCc1cccnc1`, the inhibition in vivo at 0.5 mg/kg in assay [10] is -1%.
For the compound `CCCCC/C(=C\C=C\C(=O)N[C@H](C)CCCc1cccnc1)c1ccc(OC)cc1`, the inhibition in vivo at 1 mg/kg in assay [1] was determined as 99%. Also, the ED50 in assay [2] was 70 mg/kg; in assay [13] it was 16 mg/kg; in assay [7], 65 mg/kg; in assay [8], 3 mg/kg; in [9] it was 1.7 mg/kg. In addition, in assay [4], the inhibition turned out to be 100%. For the same compound, the inhibition in vivo at 50 mg/kg in assay [5] was determined as 71%. This compound also returned an ID50 in [6] of 0.05 mg/kg.
Regarding `CC[C@H](CCCc1cccnc1)NC(=O)/C=C/C=C(c1ccc(OC)cc1)c1ccc(OC)cc1`, in [1], the inhibition in vivo at 1 mg/kg turned out to be 99%. Moreover, the ED50 in assay [3] came out at 6 mg/kg. This compound displayed an inhibition in [4] of 99%. Further, the inhibition in vivo at 50 mg/kg in assay [5] is 85%. For the same compound, the ID50 in assay [6] is 0.16 mg/kg.
For the compound `CCCCCC/C(=C\C=C\C(=O)N[C@H](C)CCCc1cccnc1)c1ccc(OC)cc1`, in assay [14], the inhibition in vivo at 1 mg/kg is 100%. The ED50 in assay [3] was 8 mg/kg. Further, the inhibition in assay [4] worked out at 96%. In addition, in [5], the inhibition in vivo at 50 mg/kg stood at 14%. The ID50 in assay [6] worked out at 0.07 mg/kg.
